22 compounds from patent US10160755B2 (Plexxikon Inc., priority 2015, dated 2018) can be followed below.

The target in assay [1] is T1, FLT3-D835Y (Homo sapiens, UniProt P36888, D835Y).
T1 construct: purchased Invitrogen PV3967
T1 sequence (P36888 27-993 D835Y): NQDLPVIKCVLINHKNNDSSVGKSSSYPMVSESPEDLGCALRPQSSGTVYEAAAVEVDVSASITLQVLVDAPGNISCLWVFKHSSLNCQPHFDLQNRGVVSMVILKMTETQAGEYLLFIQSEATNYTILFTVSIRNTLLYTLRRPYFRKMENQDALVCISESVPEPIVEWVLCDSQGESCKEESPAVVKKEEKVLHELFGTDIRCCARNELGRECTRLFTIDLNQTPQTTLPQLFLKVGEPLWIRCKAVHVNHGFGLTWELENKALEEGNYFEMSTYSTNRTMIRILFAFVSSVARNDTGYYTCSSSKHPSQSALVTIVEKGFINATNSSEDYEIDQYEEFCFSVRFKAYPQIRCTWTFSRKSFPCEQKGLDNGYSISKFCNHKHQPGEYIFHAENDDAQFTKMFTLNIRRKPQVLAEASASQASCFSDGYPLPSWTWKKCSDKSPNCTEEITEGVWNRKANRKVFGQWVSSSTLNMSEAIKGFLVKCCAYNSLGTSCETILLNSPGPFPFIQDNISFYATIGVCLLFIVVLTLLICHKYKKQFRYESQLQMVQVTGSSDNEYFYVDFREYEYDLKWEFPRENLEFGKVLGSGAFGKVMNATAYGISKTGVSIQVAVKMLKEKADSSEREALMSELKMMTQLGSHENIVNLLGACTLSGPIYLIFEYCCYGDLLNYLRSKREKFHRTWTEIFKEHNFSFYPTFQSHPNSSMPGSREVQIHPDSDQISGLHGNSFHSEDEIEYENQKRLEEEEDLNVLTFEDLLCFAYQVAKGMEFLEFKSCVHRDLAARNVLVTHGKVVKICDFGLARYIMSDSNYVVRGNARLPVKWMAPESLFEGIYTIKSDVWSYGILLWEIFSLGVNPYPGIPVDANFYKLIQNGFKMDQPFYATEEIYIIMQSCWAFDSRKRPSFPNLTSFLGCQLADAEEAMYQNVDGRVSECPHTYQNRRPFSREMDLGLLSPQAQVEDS
Description: FLT3-D835Y biochemical kinase assay (AlphaScreen). Put shortly: (§1)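 Compounds were tested against recombinant enzyme using AlphaScreen detection of tyrosine-phosphorylated biotin-poly(Glu4-Tyr) (30 nM final). The ATP concentration differed by construct: 10 μM for D835Y, 100 μM for ITD.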

Assay [2] addresses T2, FLT3-ITD (Homo sapiens, UniProt P36888).
T2 construct: FLT3-ITD; Invitrogen #PV6190
T2 sequence (P36888 1-993): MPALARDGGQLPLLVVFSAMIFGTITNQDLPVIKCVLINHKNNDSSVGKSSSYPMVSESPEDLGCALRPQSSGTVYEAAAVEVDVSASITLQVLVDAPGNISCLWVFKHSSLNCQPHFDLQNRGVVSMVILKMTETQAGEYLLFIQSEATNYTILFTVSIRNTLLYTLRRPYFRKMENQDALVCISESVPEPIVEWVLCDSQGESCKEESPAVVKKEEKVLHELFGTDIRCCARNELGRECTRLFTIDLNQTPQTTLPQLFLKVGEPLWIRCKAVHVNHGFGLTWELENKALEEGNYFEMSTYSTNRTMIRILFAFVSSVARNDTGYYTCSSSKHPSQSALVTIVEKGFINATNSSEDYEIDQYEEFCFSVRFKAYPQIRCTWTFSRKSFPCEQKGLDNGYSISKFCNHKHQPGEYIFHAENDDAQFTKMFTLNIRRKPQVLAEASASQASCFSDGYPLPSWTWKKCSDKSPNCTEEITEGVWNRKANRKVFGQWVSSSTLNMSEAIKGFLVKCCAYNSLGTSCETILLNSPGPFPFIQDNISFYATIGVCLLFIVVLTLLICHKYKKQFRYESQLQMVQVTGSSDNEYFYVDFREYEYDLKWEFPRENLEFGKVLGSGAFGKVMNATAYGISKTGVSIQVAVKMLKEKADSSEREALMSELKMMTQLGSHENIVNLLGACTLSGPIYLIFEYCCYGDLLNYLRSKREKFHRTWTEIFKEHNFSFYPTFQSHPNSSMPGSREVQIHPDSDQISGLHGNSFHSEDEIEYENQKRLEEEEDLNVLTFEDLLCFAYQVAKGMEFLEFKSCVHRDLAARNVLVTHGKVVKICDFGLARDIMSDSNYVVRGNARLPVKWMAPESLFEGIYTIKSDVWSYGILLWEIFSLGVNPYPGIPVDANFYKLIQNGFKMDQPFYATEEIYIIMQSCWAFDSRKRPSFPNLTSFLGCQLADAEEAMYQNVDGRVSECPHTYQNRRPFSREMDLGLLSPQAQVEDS
In words: FLT3-ITD biochemical kinase assay (AlphaScreen). The procedure, abridged: as §1

As a reminder, the IC50 is the concentration that gives 50% inhibition. Read a low IC50 as inhibition by little substance. `O=C(NC1CC1)c1cccc(-c2cnc3[nH]cc(-c4ccc5ncsc5c4)c3n2)c1` [P-162, 3-[7-(1,3-benzothiazol-6-yl)-5H-pyrrolo[2,3-b]pyrazin-2-yl]-N-cyclopropyl-benzamide]: the half-inhibitory concentration (IC50) in assay [1] and in assay [2] was 0.0001 to 1 µM in each case.

For `N#Cc1cccc(-c2cnc3[nH]cc(-c4ccc5ncn(C6CCCNC6)c5c4)c3c2)c1` (centres unmarked) [P-200, 3-[3-[3-(3-piperidyl)benzimidazol-5-yl]-1H-pyrrolo[2,3-b]pyridin-5-yl]benzonitrile], the IC50 in assay [1] and in assay [2] was 0.0001 to 1 µM in each case.

`O=C(C1CC1)N1CC=C(c2cnc3[nH]cc(-c4ccc5c(c4)N(CC(F)(F)F)CCO5)c3n2)C1` [P-190]: the IC50 in assay [1] and in assay [2] was 0.0001 to 1 µM throughout.

As to `CC(C)(C)n1cnc2ccc(-c3c[nH]c4ncc(-c5ccc(S(=O)(=O)N6CCCC6)cc5)nc34)cc21` [P-239, 7-(3-tert-butylbenzimidazol-5-yl)-2-(4-pyrrolidin-1-ylsulfonylphenyl)-5H-pyrrolo[2,3-b]pyrazine], the IC50 in assay [1] and in assay [2] was 0.0001 to 1 µM throughout.

As to `CN(C)c1ncc(-c2cnc3[nH]cc(-c4ccc5ncn(C(C)(C)C)c5c4)c3n2)cn1` [P-378, 5-[7-(3-tert-butylbenzimidazol-5-yl)-5H-pyrrolo[2,3-b]pyrazin-2-yl]-N,N-dimethyl-pyrimidin-2-amine], the half-inhibitory concentration (IC50) in assay [1] and in assay [2] was 0.0001 to 1 µM each time.

Take `CCCS(=O)(=O)Nc1cccc(-c2cnc3[nH]cc(-c4ccc5ncn(C)c5c4)c3n2)c1` [P-155, N-[3-[7-(3-methylbenzimidazol-5-yl)-5H-pyrrolo[2,3-b]pyrazin-2-yl]phenyl]propane-1-sulfonamide]: the IC50 in assay [1] and in assay [2] was 0.0001 to 1 µM each time.

Regarding `CC(C)(C)n1cnc2ccc(-c3c[nH]c4ncc(-c5ccc(F)c(C#N)c5)cc34)cc21` [P-207, 5-[3-(3-tert-butylbenzimidazol-5-yl)-1H-pyrrolo[2,3-b]pyridin-5-yl]-2-fluoro-benzonitrile], the half-maximal inhibitory concentration (IC50) in assay [1] and in assay [2] was 0.0001 to 1 µM throughout.

Take `COc1cc(-c2cnc3[nH]cc(-c4ccc5ncn(C6CCCNC6)c5c4)c3c2)cc(OC)n1` (centres unmarked) [P-197, 5-(2,6-dimethoxy-4-pyridyl)-3-[3-(3-piperidyl)benzimidazol-5-yl]-1H-pyrrolo[2,3-b]pyridine]: the IC50 in assay [1] and in assay [2] was 0.0001 to 1 µM each time.

Consider `CCS(=O)(=O)Nc1cccc(-c2cnc3[nH]cc(-c4ccc5ncn(C)c5c4)c3n2)c1` [P-154, N-[3-[7-(3-methylbenzimidazol-5-yl)-5H-pyrrolo[2,3-b]pyrazin-2-yl]phenyl]ethanesulfonamide], for which the 50% inhibitory concentration (IC50) in assay [1] and in assay [2] was 0.0001 to 1 µM throughout.

On to `O=S(=O)(Nc1cnc2[nH]cc(-c3ccc4ncn(C5CCCNC5)c4c3)c2c1)c1cccc(OC(F)(F)F)c1` (centres unmarked) [P-212, N-[3-[3-(3-piperidyl)benzimidazol-5-yl]-1H-pyrrolo[2,3-b]pyridin-5-yl]-3-(trifluoromethoxy)benzenesulfonamide], for which the IC50 in assay [1] and in assay [2] was 0.0001 to 1 µM throughout.

With `CC(C)(C)n1cnc2ccc(-c3c[nH]c4ncc(-c5cccc(OC(F)(F)F)c5)nc34)cc21` [P-191, 7-(3-tert-butylbenzimidazol-5-yl)-2-[3-(trifluoromethoxy)phenyl]-5H-pyrrolo[2,3-b]pyrazine], the IC50 in assay [1] and in assay [2] was 0.0001 to 1 µM throughout.

For `CC(C)(C)n1cnc2ccc(-c3c[nH]c4ncc(-c5ccc(C#N)c(N6CCCC6)c5)nc34)cc21` [P-335, 4-[7-(3-tert-butylbenzimidazol-5-yl)-5H-pyrrolo[2,3-b]pyrazin-2-yl]-2-pyrrolidin-1-yl-benzonitrile], the half-inhibitory concentration (IC50) in assay [1] and in assay [2] was 0.0001 to 1 µM in each case.

`CC(C)N1CCOc2ccc(-c3c[nH]c4ncc(C5=CCN(C(=O)C6CC6)C5)nc34)cc21` [P-189, cyclopropyl-[3-[7-(4-isopropyl-2,3-dihydro-1,4-benzoxazin-6-yl)-5H-pyrrolo[2,3-b]pyrazin-2-yl]-2,5-dihydropyrrol-1-yl]methanone]: the half-inhibitory concentration (IC50) in assay [1] and in assay [2] was 0.0001 to 1 µM throughout.

Regarding `COc1cc(-c2cnc3[nH]cc(-c4ccc5c(c4)N(CC(F)(F)F)CCO5)c3n2)ccn1` [P-188, 6-(2-(2-methoxypyridin-4-yl)-5H-pyrrolo[2,3-b]pyrazin-7-yl)-4-(2,2,2-trifluoroethyl)-3,4-dihydro-2H-benzo[b][1,4]oxazine], the IC50 in assay [1] and in assay [2] was 0.0001 to 1 µM each time.

For the compound `N#Cc1cccc(-c2cnc3[nH]cc(-c4ccc5ncn(-c6ccc(F)cc6)c5c4)c3c2)c1` [P-201, 3-[3-[3-(4-fluorophenyl)benzimidazol-5-yl]-1H-pyrrolo[2,3-b]pyridin-5-yl]benzonitrile], the IC50 in assay [1] and in assay [2] was 0.0001 to 1 µM each time.

Regarding `COc1cc(-c2cnc3[nH]cc(-c4ccc5ncn(C)c5c4)c3n2)ccc1Cl` [P-149, 2-(4-chloro-3-methoxy-phenyl)-7-(3-methylbenzimidazol-5-yl)-5H-pyrrolo[2,3-b]pyrazine], the half-inhibitory concentration (IC50) in assay [1] and in assay [2] was 0.0001 to 1 µM each time.

As to `COc1cc(-c2cnc3[nH]cc(-c4ccc5ncn(C6CCCNC6)c5c4)c3n2)ccn1` (centres unmarked) [P-136, 2-(2-methoxypyridin-4-yl)-7-(1-(piperidin-3-yl)-1H-benzo[d]imidazol-6-yl)-5H-pyrrolo[2,3-b]pyrazine], the IC50 in assay [1] and in assay [2] was 0.0001 to 1 µM each time.

In the case of `N#Cc1cccc(S(=O)(=O)Nc2cnc3[nH]cc(-c4ccc5ncn(C6CCCNC6)c5c4)c3c2)c1` (centres unmarked) [P-234, 3-cyano-N-[3-[3-(3-piperidyl)benzimidazol-5-yl]-1H-pyrrolo[2,3-b]pyridin-5-yl]benzenesulfonamide], the IC50 in assay [1] and in assay [2] was 0.0001 to 1 µM each time.

Turning to `N#Cc1cccc(-c2cnc3[nH]cc(-c4ccc5ncsc5c4)c3n2)c1` [P-181, 3-[7-(1,3-benzothiazol-6-yl)-5H-pyrrolo[2,3-b]pyrazin-2-yl]benzonitrile], the concentration for half-maximal inhibition (IC50) in assay [1] and in assay [2] was 0.0001 to 1 µM each time.

For `CC(C)(C)n1cnc2ccc(-c3c[nH]c4ncc(-c5cccc(C#N)c5)cc34)cc21` [P-199, 3-[3-(3-tert-butylbenzimidazol-5-yl)-1H-pyrrolo[2,3-b]pyridin-5-yl]benzonitrile], the half-maximal inhibitory concentration (IC50) in assay [1] and in assay [2] was 0.0001 to 1 µM each time.

Take `CCCS(=O)(=O)Nc1cccc(-c2cnc3[nH]cc(-c4ccc5ncsc5c4)c3n2)c1` [P-168, N-[3-[7-(1,3-benzothiazol-6-yl)-5H-pyrrolo[2,3-b]pyrazin-2-yl]phenyl]propane-1-sulfonamide]: the half-inhibitory concentration (IC50) in assay [1] and in assay [2] was 0.0001 to 1 µM throughout.

For the compound `COc1cc(-c2cnc3[nH]cc(-c4ccc5ncn(-c6ccc(F)cc6)c5c4)c3n2)ccn1` [P-206, 7-[3-(4-fluorophenyl)benzimidazol-5-yl]-2-(2-methoxy-4-pyridyl)-5H-pyrrolo[2,3-b]pyrazine], the concentration for half-maximal inhibition (IC50) in assay [1] and in assay [2] was 0.0001 to 1 µM in each case.
